# Laboratory results as given in US7728131B2, “Amide derivative and medicine” (Nippon Shinyaku Co., Ltd., priority 2003, dated 2010).
# Counter-ions that a name gives are not always drawn. Like-named read-outs stand apart in the source and are kept apart here.
# Key:
# U937 cells = experiment: Cell growth inhibitory effect, U937 cells (Cell counting Kit-8, 72 hours); assay type: cell-based; settings: Homo sapiens, U-937, BCR-ABL negative U937 cells, WST-8 absorbance
# Protocol: The plate was incubated in a CO2 incubator overnight. […] The plate was incubated in a CO2 incubator. After 72 hours, 20 μl
# K562 cells = experiment: Cell growth inhibitory effect, K562 cells (Cell counting Kit-8, 72 hours); settings: for IC50: Homo sapiens, K562, 72 h, read-out: K562 cells (IC50 value: μM); for Ratio (U937 cells/K562 cells): IC50 U937 cells / IC50 K562 cells;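 for all read-outs here: Read-out is formazan absorbance at 450 nm from WST-8 reduction after a 3 h color reaction, with K562 and U937 cells grown in 96-well plates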
# Protocol: of Cell counting Kit-8 (5 mmol/l WST-8, 0.2 mmol/1 1-Methoxy PMS, 150 mmol/l NaCl) (manufactured by Dojindo) was added to each well. After reaction for color development in a CO2 incubator for 3 hours, an absorbance of formazan, generated by reduction of WST-8 was determined at 450 nm using Multi-level counter ARVOsx (manufactured by Wallac).
# K562 cells and U937 cells (purchased from American Type Culture Collection) were cultured in a RPMI-1640 medium (manufactured by Sigma) containing 10% (v/v) fetal calf serum (FCS) (manufactures by Sigma) (RPMI-1640/FCS). K562 cells and U937 cells were seeded at a density of 5000 cells/100 μl/well and 4000 cells/100 μl/well in each of 96-hole-plate (manufactured by costar), respectively. The plate was incubated in a CO2 incubator overnight. […] The resulting solution was diluted 500 times in a RPMI-1640/FCS medium and then 100 μl of the diluent was added in a well. The plate was incubated in a CO2 incubator. After 72 hours, 20 μl
# [1] = continuation of Table 3, read-out: U937 cells (IC50 value: nμM)
# [2] = read-out: U937 cells (IC50 value: μM)
IC50 (U937 cells; [1]) [µM],melting point,IC50 (K562 cells) [µM],IC50 (U937 cells; [2]) [µM],SMILES,Ratio (U937 cells/K562 cells) (K562 cells)
4.4,176 to 182 °C (dec.),0.0039,,"Cc1ccc(NC(=O)c2ccc(CN3CCNCC3)c(C(F)(F)F)c2)cc1Nc1nccc(-c2cncc(Br)c2)n1.Cl [Example 40, 4-(1-piperazinylmethyl)-3-trifluoromethyl-N-{3-[4-(5-bromopyridin-3-yl)pyrimidin-2-ylamino]-4-methylphenyl}benzamide hydrochloride]",1128
29,,0.019,,"Cc1ccc(NC(=O)c2ccc(CN3CC[C@H](N)C3=O)c(C(F)(F)F)c2)cc1Nc1nccc(-c2cncnc2)n1 [Example 46, (−)-4-((S)-3-amino-2-oxopyrrolidin-1-ylmethyl)-3-trifluoromethyl-N-{4-methyl-3-[4-(5-pyrimidinyl)pyrimidin-2-ylamino]phenyl}benzamide]",1526
10,187 to 193 °C,0.0022,,"Cc1ccc(NC(=O)c2ccc(CN3CCN(C)[C@@H](C)C3)c(C(F)(F)F)c2)cc1Nc1nccc(-c2cncnc2)n1.Cl [Example 69, (−)-4-((S)-3,4-dimethylpiperazin-1-ylmethyl)-3-trifluoromethyl-N-{4-methyl-3-[4-(5-pyrimidinyl)pyrimidin-2-ylamino]phenyl}benzamide hydrochloride]",4545
3.9,,0.004,,"Cc1ccc(NC(=O)c2ccc(CN3CCC[C@H]3CN3CCCC3)c(C(F)(F)F)c2)cc1Nc1nccc(-c2cncnc2)n1.Cl [Example 52, (−)-4-[(S)-2-(1-pyrrolidinylmethyl)pyrrolidin-1-ylmethyl]-3-trifluoromethyl-N-{4-methyl-3-[4-(5-pyrimidinyl)pyrimidin-2-ylamino]phenyl}benzamide hydrochloride]",975
2.1,190 to 194 °C (dec.),0.0069,,"Cc1ccc(NC(=O)c2ccc(CN3CCN(C)CC3)c(C(F)(F)F)c2)cc1Nc1cc(-c2cccnc2)ncn1.Cl [Example 31, 4-(1-methylpiperazin-4-ylmethyl)-3-trifluoromethyl-N-{4-methyl-3-[6-(3-pyridyl)pyrimidin-4-ylamino]phenyl}benzamide hydrochloride]",304
4.4,254 to 258 °C,0.0046,,"Cc1ccc(NC(=O)c2ccc(CN3CCN[C@H](C)C3)c(C(F)(F)F)c2)cc1Nc1nccc(-c2cncnc2)n1.Cl [Example 56, (+)-4-((R)-3-methylpiperazin-1-ylmethyl)-3-trifluoromethyl-N-{4-methyl-3-[4-(5-pyrimidinyl)pyrimidin-2-ylamino]phenyl}benzamide hydrochloride]",957
10,248 to 255 °C (dec.),0.0014,,"Cc1ccc(NC(=O)c2ccc(CN3CCN(CCO)CC3)c(C(F)(F)F)c2)cc1Nc1nccc(-c2cncnc2)n1.Cl [Example 37, 4-[4-(2-hydroxyethyl)piperazin-1-ylmethyl]-3-trifluoromethyl-N-{4-methyl-3-[4-(5-pyrimidinyl)pyrimidin-2-ylamino]phenyl}benzamide hydrochloride]",7143
,227 to 231 °C (dec.),0.00098,4.6,"Cc1ccc(NC(=O)c2ccc(CC3CCN(C)CC3)c(C(F)(F)F)c2)cc1Nc1nccc(-c2cncnc2)n1.Cl [Example 8, 4-(1-methylpiperidin-4-ylmethyl)-3-trifluoromethyl-N-{4-methyl-3-[4-(5-pyrimidinyl)pyrimidin-2-ylamino]phenyl}benzamide hydrochloride]",4694
12,,0.004,,"Cc1ccc(NC(=O)c2ccc(CN3CC[C@H](N(C)C)C3)c(C(F)(F)F)c2)cc1Nc1nccc(-c2cncnc2)n1.Cl [Example 48, (−)-4-[(S)-3-(dimethylamino)pyrrolidin-1-ylmethyl]-3-trifluoromethyl-N-{4-methyl-3-[4-(5-pyrimidinyl)pyrimidin-2-ylamino]phenyl}benzamide hydrochloride]",3000
3.9,,0.0011,,"Cc1ccc(NC(=O)c2ccc(CN3CCNCC3)c(C(F)(F)F)c2)cc1Nc1nccc(-c2cncnc2)n1 [Example 43, 4-(1-piperazinylmethyl)-3-trifluoromethyl-N-{4-methyl-3-[4-(5-pyrimidinyl)pyrimidin-2-ylamino]phenyl}benzamide trifluoroacetate]",3545
5.8,,0.0024,,"CN[C@H]1CCN(Cc2ccc(C(=O)Nc3ccc(C)c(Nc4nccc(-c5cncnc5)n4)c3)cc2C(F)(F)F)C1 [Example 68, (−)-4-[(S)-3-(methylamino)pyrrolidin-1-ylmethyl]-3-trifluoromethyl-N-{4-methyl-3-[4-(5-pyrimidinyl)pyrimidin-2-ylamino]phenyl}benzamide]",2417
,256 to 259 °C (dec.),0.0011,4.1,"CCN1CCN(Cc2ccc(C(=O)Nc3ccc(C)c(Nc4nccc(-c5cncnc5)n4)c3)cc2C(F)(F)F)CC1.Cl [Example 16, 4-(4-ethylpiperazin-1-ylmethyl)-3-trifluoromethyl-N-{4-methyl-3-[4-(5-pyrimidinyl)pyrimidin-2-ylamino]phenyl}benzamide hydrochloride]",3727
3.8,254 to 256 °C (dec.),0.0018,,"CCN1CCN(Cc2ccc(C(=O)Nc3ccc(C)c(Nc4cc(-c5cncnc5)ccn4)c3)cc2C(F)(F)F)CC1.Cl [Example 25, 4-(4-ethylpiperazin-1-ylmethyl)-3-trifluoromethyl-N-{4-methyl-3-[4-(5-pyrimidinyl)pyridin-2-ylamino]phenyl}benzamide hydrochloride]",2111
,241 to 242 °C (dec.),,,"Cc1ccc(NC(=O)c2ccc(CN3CCN(C)CC3)c(C(F)(F)F)c2)cc1Nc1cc(-c2cccnc2)ccn1 [Example 28, 4-(4-methylpiperazin-1-ylmethyl)-3-trifluoromethyl-N-{4-methyl-3-[4-(3-pyridyl)pyridin-2-ylamino]phenyl}benzamide]",
,189 to 191 °C,,,"Cc1ccc(NC(=O)c2ccc(CN3CCN(C)CC3)c(C(F)(F)F)c2)cc1Nc1cc(-c2cccnc2)ccn1 (as salt: methanesulfonate) [Example 29, 4-(4-methylpiperazin-1-ylmethyl)-3-trifluoromethyl-N-{4-methyl-3-[4-(3-pyridyl)pyridin-2-ylamino]phenyl}benzamide methanesulfonate]",
8.9,,0.0019,,"Cc1ccc(NC(=O)c2ccc(CN3CC[C@@H](N(C)C)C3)c(C(F)(F)F)c2)cc1Nc1nccc(-c2cncnc2)n1.Cl [Example 38, (+)-4-[(R)-3-(dimethylamino)pyrrolidin-1-ylmethyl]-3-trifluoromethyl-N-{4-methyl-3-[4-(5-pyrimidinyl)pyrimidin-2-ylamino]phenyl}benzamide hydrochloride]",4684
42,,0.0063,,"Cc1ccc(NC(=O)c2ccc(CC3CCN(C)CC3)c(CF)c2)cc1Nc1nccc(-c2cncnc2)n1 [Example 21, 3-fluoromethyl-4-(1-methylpiperidin-4-ylmethyl)-N-{4-methyl-3-[4-(5-pyrimidinyl)pyrimidin-2-ylamino]phenyl}benzamide]",6667
,142 to 149 °C (dec.),,,"CN[C@H]1CCN(Cc2ccc(C(=O)Nc3ccc(C)c(Nc4nccc(-c5cncnc5)n4)c3)cc2C(F)(F)F)C1 (as salt: salt) [Example 68, (−)-4-[(S)-3-(methylamino)pyrrolidin-1-ylmethyl]-3-trifluoromethyl-N-{4-methyl-3-[4-(5-pyrimidinyl)pyrimidin-2-ylamino]phenyl}benzamide]",
1.4,,0.0017,,"Cc1ccc(NC(=O)c2ccc(CN3CCN(C)CC3)c(C(F)(F)F)c2)cc1Nc1cc(-c2cccnc2)ccn1 [Example 29, 4-(4-methylpiperazin-1-ylmethyl)-3-trifluoromethyl-N-{4-methyl-3-[4-(3-pyridyl)pyridin-2-ylamino]phenyl}benzamide methanesulfonate]",824
,199 to 202 °C (dec.),,,"Cc1ccc(NC(=O)c2ccc(CN3CCNCC3)c(C(F)(F)F)c2)cc1Nc1nccc(-c2cncnc2)n1 (as salt: trifluoroacetate) [Example 43, 4-(1-piperazinylmethyl)-3-trifluoromethyl-N-{4-methyl-3-[4-(5-pyrimidinyl)pyrimidin-2-ylamino]phenyl}benzamide trifluoroacetate]",
10,,0.0022,,"Cc1ccc(NC(=O)c2ccc(CN3CCN[C@@H](C)C3)c(C(F)(F)F)c2)cc1Nc1nccc(-c2cncnc2)n1.Cl [Example 55, 4-((S)-3-methylpiperazin-1-ylmethyl)-3-trifluoromethyl-N-{4-methyl-3-[4-(5-pyrimidinyl)pyrimidin-2-ylamino]phenyl}benzamide]",4545
13,,0.0081,,"CO[C@H]1CN(Cc2ccc(C(=O)Nc3ccc(C)c(Nc4nccc(-c5cncnc5)n4)c3)cc2C(F)(F)F)C[C@@H]1N(C)C.Cl [Example 59, 4-[(3S,4S)-3-(dimethylamino)-4-methoxypyrrolidin-1-ylmethyl]-3-trifluoromethyl-N-{4-methyl-3-[4-(5-pyrimidinyl)pyrimidin-2-ylamino]phenyl}benzamide hydrochloride]",1605
